Measured values: patent publication US9284350B2, “IAP BIR domain binding compounds” (Pharmascience Inc., priority 2010, dated 2016)

How the values were obtained:
[1] = system: Colorectal carcinoma HCT116 cells; assay: Cell death assay (MTT) in combination with HGS ETR1; assay type: cell-based; conditions: with HGS ETR1 30 ng/ml, 72 hours, read-out: HCT116+ mapatubimap EC50
Protocol: Colorectal carcinoma HCT116 cells were cultured as monolayers in 96 well plates at a density of 2000 cells per well in McCoy's 5a medium (HyClone) supplemented with 2.2 g/L sodium bicarbonate, 10% FBS (HyClone) and 1% penicillin/streptomycin (HyClone). 24 hours later, triplicate wells were treated with HGS ETR1 (30 ng/ml) in combination with compound. Cells were incubated in the presence of compound and HGS agonistic Trail receptor antibody, ETR1 (Mapatumamab, 30 ng/ml) for 72 hours. Metabolic viability of remaining cells was assessed by MTT (thiazolyl blue tetrazolium bromide, Sigma) assay.
EC50 values (50% cell survival in the presence of compound as compared to untreated controls) were calculated from survival curves using BioAssay software (CambridgeSoft) and GraphPad Prism (Graph Pad Software Inc.). The results are provided in Table 3, below, wherein A=less than 50 nM; B=less than 250 nM; C=less than 1000 nM; and D=greater than 1000 nM.

[2] = molecular target: T1, c-IAP1 (Homo sapiens, UniProt Q13490); assay: Fluorescence polarization-based competition assay, c-IAP1; assay type: binding; conditions: FP assay, ki derived from IC50
T1 construct: GST (N); made in house; host or cells: E. coli DH5α
T1 sequence (Q13490 251-363): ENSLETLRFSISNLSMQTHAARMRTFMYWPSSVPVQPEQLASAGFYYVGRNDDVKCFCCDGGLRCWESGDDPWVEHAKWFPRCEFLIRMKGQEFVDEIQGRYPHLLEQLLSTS
Protocol: (§1) Binding of compounds of Formula 1 to target BIR domains was measured using a fluorescence-polarization (FP) assay. Fluorescence-polarization was evaluated using a GENios microplate reader (TECAN) Pro instrument with the excitation filter set at 485 nm and the emission filter set at 535 nm. The final amount of protein used in the assay corresponds to the amount of protein necessary to obtain 80% of the maximum FP value in a P1 or P2 fluorescent (FITC) probe saturation experiment. The compounds potency (IC50) and selectivity, was assessed in the presence of the amount of target protein established, fluorescent probe, and a 10 point serial dilution in assay buffer (50 mM Hepes, pH 7.5, 250 mcg/mL γ-globulin, 2 mM DTT, 1% DMSO) of the selected compounds.
(§2) Assays were carried out in duplicate using untreated black 96-well plates (Corning #3915) and a total volume of 100 microliters, containing 25 microliters of fluorescent probe at a final concentration of 2 nM in assay buffer, 25 microliters of diluted compound, 25 microliters of BIR protein into assay buffer and 25 microliters of assay buffer. Buffer only (blank) or probe only in buffer (G-factor) were used as controls for calibration. The plate was incubated at room temperature in the dark for one hour and FP values in millipolarization units (mP) were recorded using Genios Pro FP reader.
(§3) The measured FP values (mP) were then plotted against compound concentration, and IC50 values were calculated based on a sigmoidal dose-response (variable-slope) curve fit using GraphPad Prism version 4.02 for Windows, GraphPad Software, San Diego Calif. USA and/or CambridgeSoft BioAssay Enterprise Version 10.1. The IC50 value is the concentration of test compound at which 50% of the tracer was displaced. ki values were derived from the calculated IC50 values as described above and according to the equation described in Nikolovska-Coleska, Z. (2004) Anal Biochem 332, 261-273. The results are presented in Table 2, wherein A=less than 25 nM; B=less than 250 nM; C=less than 1000 nM; and D=greater than 1000 nM.

[3] = molecular target: T2, XIAP (Homo sapiens, UniProt P98170); assay: Fluorescence polarization-based competition assay, XIAP; assay type: binding; conditions: FP assay, ki derived from IC50
T2 construct: fused on or other part: GST tag at the N-terminus (pGEX4T vectors)
T2 sequence (P98170 246-497 limits assumed): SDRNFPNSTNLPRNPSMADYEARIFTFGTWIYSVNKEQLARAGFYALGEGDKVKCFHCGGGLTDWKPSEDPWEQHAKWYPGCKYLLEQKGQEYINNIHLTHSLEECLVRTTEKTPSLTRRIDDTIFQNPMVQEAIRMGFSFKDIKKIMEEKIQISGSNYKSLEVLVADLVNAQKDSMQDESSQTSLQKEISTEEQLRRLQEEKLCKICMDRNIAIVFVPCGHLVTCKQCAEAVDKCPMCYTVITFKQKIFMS
Protocol: as §1, §2, §3

CN[C@@H](C)C(=O)N[C@H](C(=O)N1C[C@@H](Oc2ccc(F)cc2)C[C@H]1CN(CCc1ccc(F)cc1)C(=O)c1cc(C)n(C)n1)C(C)(C)C [Compound 121]
EC50 [1]: < 50 nM

CN[C@@H](C)C(=O)N[C@H](C(=O)N1CCC[C@H]1CN(CCc1ccc(F)cc1)C(=O)c1cnn(-c2ccc(F)cc2)n1)C1CCCCC1 [Compound 118]
EC50 [1]: < 250 nM

CN[C@@H](C)C(=O)N[C@H](C(=O)N1CCC[C@H]1CN(CCc1ccccc1F)C(=O)c1cn2cccnc2n1)C(C)(C)C [Compound 11]
Ki [2]: < 25 nM | Ki [3]: < 250 nM | EC50 [1]: < 250 nM

CN[C@@H](C)C(=O)N[C@H](C(=O)N1CCC[C@H]1CN(CCc1ccc(F)cc1)C(=O)c1cn(-c2ccc(OC)cc2)cn1)C(C)(C)C [Compound 52]
Ki [2]: < 25 nM | Ki [3]: < 250 nM | EC50 [1]: < 250 nM

CN[C@@H](C)C(=O)N[C@H](C(=O)N1CCC[C@H]1CN(CCc1ccc(F)cc1)C(=O)c1coc(-c2ccccc2)n1)C(C)(C)C [Compound 64]
Ki [2]: < 25 nM | Ki [3]: < 250 nM | EC50 [1]: < 250 nM

CN[C@@H](C)C(=O)N[C@H](C(=O)N1CCC[C@H]1CN(CCc1ccc(F)cc1)C(=O)c1cn2cc(OC)ccc2n1)C(C)(C)C [Compound 51]
Ki [2]: < 25 nM | Ki [3]: < 250 nM | EC50 [1]: < 250 nM

CN[C@@H](C)C(=O)N[C@H](C(=O)N1CCC[C@H]1CN(CCc1ccccc1)C(=O)c1cc2ccccn2c1)C(C)(C)C [Compound 8]
Ki [2]: < 25 nM | Ki [3]: < 25 nM | EC50 [1]: < 250 nM

CN[C@@H](C)C(=O)N[C@H](C(=O)N1CCC[C@H]1CN(CCc1ccccc1)C(=O)c1cn2cccnc2n1)C1CCCC1 [Compound 33]
Ki [2]: < 25 nM | Ki [3]: < 250 nM | EC50 [1]: < 250 nM

CN[C@@H](C)C(=O)N[C@H](C(=O)N1CCC[C@H]1CN(CCc1ccc(F)cc1)C(=O)c1cn2cc(-c3ccccc3)ccc2n1)C(C)(C)C [Compound 48]
Ki [2]: < 25 nM | Ki [3]: < 250 nM | EC50 [1]: < 50 nM

CN[C@@H](C)C(=O)N[C@H](C(=O)N1CCC[C@H]1CN(CCc1ccccc1)C(=O)c1cnc2ccccn12)C(C)(C)C [Compound 28]
Ki [2]: < 25 nM | Ki [3]: < 250 nM | EC50 [1]: < 1000 nM

CN[C@@H](C)C(=O)N[C@H](C(=O)N1CCC[C@H]1CN(CCc1ccccc1)C(=O)c1cn2ccccc2n1)C1CCCCC1 [Compound 13]
Ki [2]: < 25 nM | Ki [3]: < 250 nM | EC50 [1]: < 250 nM

CN[C@@H](C)C(=O)N[C@H](C(=O)N1CCC[C@H]1CN(CCc1ccc(F)cc1)C(=O)c1cn2ccccc2n1)C1CCOCC1 [Compound 19]
Ki [2]: < 25 nM | Ki [3]: < 250 nM | EC50 [1]: < 50 nM

CN[C@@H](C)C(=O)N[C@H](C(=O)N1C[C@@H](Oc2ccc(F)cc2)C[C@H]1CN(CCc1ccc(F)cc1)C(=O)c1cnn(-c2ccc(F)cc2)n1)C(C)(C)C [Compound 119]
EC50 [1]: < 250 nM

CN[C@@H](C)C(=O)N[C@H](C(=O)N1CCC[C@H]1CN(CCc1ccccc1)C(=O)c1cc2ccccc2n1C)C(C)(C)C [Compound 26]
Ki [2]: < 25 nM | Ki [3]: < 250 nM | EC50 [1]: < 1000 nM

CN[C@@H](C)C(=O)N[C@H](C(=O)N1CCC[C@H]1CN(CCc1ccccc1)C(=O)c1nc2ccccc2[nH]1)C(C)(C)C [Compound 16]
Ki [2]: < 25 nM | Ki [3]: < 250 nM | EC50 [1]: < 1000 nM

CC[C@H](NC)C(=O)N[C@H](C(=O)N1CCC[C@H]1CN(CCc1ccccc1)C(=O)c1cn2cccnc2n1)C1CCCCC1 [Compound 1]
Ki [2]: < 25 nM | Ki [3]: < 1000 nM | EC50 [1]: < 250 nM

CN[C@@H](C)C(=O)N[C@H](C(=O)N1CCC[C@H]1CN(CCc1ccccc1)C(=O)c1c[nH]cn1)C(C)(C)C [Compound 21]
Ki [2]: < 25 nM | Ki [3]: < 250 nM | EC50 [1]: < 1000 nM

CN[C@@H](C)C(=O)N[C@H](C(=O)N1CCC[C@H]1CN(CCc1ccc(F)cc1)C(=O)c1cn2cc(F)ccc2n1)C(C)(C)C [Compound 39]
Ki [2]: < 25 nM | Ki [3]: < 250 nM | EC50 [1]: < 250 nM

CN[C@@H](C)C(=O)N[C@H](C(=O)N1CCC[C@H]1CN(CCc1ccccc1)C(=O)c1ncc[nH]1)C(C)(C)C [Compound 22]
Ki [2]: < 25 nM | Ki [3]: < 250 nM | EC50 [1]: < 250 nM

CN[C@@H](C)C(=O)N[C@H](C(=O)N1CCC[C@H]1CN(CCc1ccccc1)C(=O)c1cn(C)c2ccccc12)C(C)(C)C [Compound 25]
Ki [2]: < 25 nM | Ki [3]: < 250 nM

CN[C@@H](C)C(=O)N[C@H](C(=O)N1CCC[C@H]1CN(CCc1ccc(F)cc1)C(=O)c1cn2cc(O)cnc2n1)C(C)(C)C [Compound 46]
Ki [2]: < 25 nM | Ki [3]: < 250 nM | EC50 [1]: < 1000 nM

CN[C@@H](C)C(=O)N[C@H](C(=O)N1CCC[C@H]1CN(CCc1ccc(F)cc1)C(=O)C(=O)Nc1ccc(F)cc1)C(C)(C)C [Compound 42]
Ki [2]: < 25 nM | Ki [3]: < 250 nM | EC50 [1]: < 1000 nM

CN[C@@H](C)C(=O)N[C@H](C(=O)N1CCC[C@H]1CN(CCc1ccccc1)C(=O)c1ccc[nH]1)C(C)(C)C [Compound 23]
Ki [2]: < 25 nM | Ki [3]: < 25 nM | EC50 [1]: < 250 nM

CN[C@@H](C)C(=O)N[C@@H](CN(C)C)C(=O)N1CCC[C@H]1CN(CCc1ccc(F)cc1)C(=O)c1cn2ccccc2n1 [Compound 57]
Ki [2]: < 25 nM | Ki [3]: < 1000 nM | EC50 [1]: < 1000 nM

CN[C@@H](C)C(=O)N[C@H](C(=O)N1CCC[C@H]1CN(CCc1ccc(F)cc1)C(=O)c1cc(C)n(C)n1)C(C)(C)C [Compound 101]
EC50 [1]: < 50 nM

CN[C@@H](C)C(=O)N[C@H](C(=O)N1CCC[C@H]1CN(CCc1ccccc1)C(=O)c1cn2cccnc2n1)C1CCCCC1 [Compound 5]
Ki [2]: < 25 nM | Ki [3]: < 250 nM | EC50 [1]: < 50 nM

CN[C@@H](C)C(=O)N[C@H](C(=O)N1CCC[C@H]1CN(CCc1ccccc1)C(=O)c1cn2ccc(C)cc2n1)C(C)(C)C [Compound 31]
Ki [2]: < 25 nM | Ki [3]: < 250 nM | EC50 [1]: < 250 nM

CN[C@@H](C)C(=O)N[C@H](C(=O)N1CCC[C@H]1CN(CCc1ccc(F)cc1)C(=O)c1cn2cc(N)ccc2n1)C(C)(C)C [Compound 45]
Ki [2]: < 25 nM | Ki [3]: < 25 nM | EC50 [1]: < 50 nM

CN[C@@H](C)C(=O)N[C@H](C(=O)N1CCC[C@H]1CN(CCc1ccccc1)C(=O)c1cn2ccncc2n1)C(C)(C)C [Compound 35]
Ki [2]: < 25 nM | Ki [3]: < 25 nM | EC50 [1]: < 250 nM

CN[C@@H](C)C(=O)N[C@H](C(=O)N1CCC[C@H]1CN(CCc1ccccc1)C(=O)c1cc2ccccc2[nH]1)C(C)(C)C [Compound 27]
Ki [2]: < 25 nM | Ki [3]: < 250 nM | EC50 [1]: < 1000 nM

CC[C@H](N)C(=O)N[C@H](C(=O)N1CCC[C@H]1CN(CCc1ccccc1)C(=O)c1cn2ccccc2n1)C1CCCCC1 [Compound 29]
Ki [2]: < 25 nM | Ki [3]: < 1000 nM | EC50 [1]: > 1000 nM

CN[C@@H](C)C(=O)N[C@H](C(=O)N1CCC[C@H]1CN(CCc1ccccc1)C(=O)C(=O)Nc1ccccc1)C(C)(C)C [Compound 9]
Ki [2]: < 25 nM | Ki [3]: < 250 nM | EC50 [1]: < 250 nM

CN[C@@H](C)C(=O)N[C@H](C(=O)N1CCC[C@H]1CN(CCc1ccc(F)cc1)C(=O)c1cn2cc(NC(C)=O)ccc2n1)C(C)(C)C [Compound 43]
Ki [2]: < 25 nM | Ki [3]: < 250 nM | EC50 [1]: < 250 nM

CN[C@@H](C)C(=O)N[C@@H](COC)C(=O)N1CCC[C@H]1CN(CCc1ccc(F)cc1)C(=O)c1cn2ccccc2n1 [Compound 60]
Ki [2]: < 25 nM | Ki [3]: < 1000 nM | EC50 [1]: < 1000 nM

CN[C@@H](C)C(=O)N[C@H](C(=O)N1CCC[C@H]1CN(CCc1ccccc1)C(=O)c1cn(C)cn1)C(C)(C)C [Compound 34]
Ki [2]: < 25 nM | Ki [3]: < 250 nM | EC50 [1]: < 250 nM

CN[C@@H](C)C(=O)N[C@H](C(=O)N1CCC[C@H]1CN(CCc1ccc(F)cc1)C(=O)c1cnc2ncccn12)C(C)(C)C [Compound 38]
EC50 [1]: < 250 nM

CN[C@@H](C)C(=O)N[C@H](C(=O)N1CCC[C@H]1CN(CCc1ccccc1)C(=O)c1cn2cc(C)ccc2n1)C(C)(C)C [Compound 30]
Ki [2]: < 25 nM | Ki [3]: < 250 nM | EC50 [1]: < 250 nM
